This assay has as its system HT29 intrarenal xenograft, nude mice, tumor weight change. The experiment in a line: NCI In Vivo Anticancer Drug Screen. Data for tumor model HT29;CX-1 Human Adenocarcinoma (MER+) (intrarenal inoculation) in NU/NU BALB/C (nude) mice. The conditions noted are these: endpoint: mean tumor weight change, higher = larger tumour. Here is the method: The antitumor activity of compounds was measured in mice bearing transplantable tumors. Survival or tumor size were measured and the results are expressed as the measurement made in the treated group (T) divided by the measurement made in the vehicle treated control group (C). The tumor model used in this assay is HT29;CX-1 Human Adenocarcinoma (MER+) (intrarenal inoculation) in NU/NU BALB/C (nude) mice

We go through three compounds from PubChem BioAssay AID208 (DTP/NCI, 2004).

Inconclusive results are not listed.

Regarding `CN(C)c1nc(N(C)C)nc(N(C)C)n1`, the T/C runs as follows: (dose: 12.5 mg/kg/injection, schedule: Q01DX010 (sc), vehicle: saline with Tween-80) 99 % of control; (dose: 50.0 mg/kg/injection, schedule: Q01DX010 (sc), vehicle: saline with Tween-80) 79 % of control; (dose: 100.0 mg/kg/injection, schedule: Q01DX010 (sc), vehicle: saline with Tween-80) 72 % of control.

As to `Oc1cccc2ccccc12`, the T/C (dose: 150.0 mg/kg/injection, schedule: Q04DX004 (ip), vehicle: water) is 63 % of control.

With `C[CH2][Sn]([CH2]C)([O]S(C)(=O)=O)[O]S(C)(=O)=O`, the T/C was 169 % of control (dose: 6.25 mg/kg/injection, schedule: Q04DX004 (sc), vehicle: saline with Tween-80) and 107 % of control (dose: 12.5 mg/kg/injection, schedule: Q04DX004 (sc), vehicle: saline with Tween-80).
